Assay results reported in patent US8618107B2 (Gilead Connecticut, Inc., priority 2010, dated 2013).
pEC50, pIC50: −log10 of the molar value.

Test system: CD86 surface expression on CD19+/7AAD- mouse splenocytes stimulated with IgM
Assay: CD86 Inhibition Assay
Type: cell-based
Settings: Splenocyte; total mouse splenocytes (Balb/c), IgM stimulation 24 hr
Procedure: Following the 24 hr incubation, cells are transferred to conical bottom clear 96-well plates and pelleted by centrifugation at 1200×g×5 min. […] Cells are sorted on a BD FACSCalibur and gated on the CD19^+/7AAD^− population. The levels of CD86 surface expression on the gated population is measured versus test compound concentration.

Row | SMILES | pEC50
1 | Cn1cc(-c2cccc(N3CCn4c(cc5c4CCCC5)C3=O)c2CO)cc(Nc2cc3n(n2)CCOC3)c1=O [Example 110, 2-(3-(5-(6,7-dihydro-4H-pyrazolo[5,1-c][1,4]oxazin-2-ylamino)-1-methyl-6-oxo-1,6-dihydropyridin-3-yl)-2-(hydroxymethyl)phenyl)-3,4,6,7,8,9-hexahydropyrazino[1,2-a]indol-1(2H)-one] | 7.66
2 | Cn1cc(-c2cccc(N3CCn4c(cc5c4CCCC5)C3=O)c2CO)nc(Nc2cnn(C3CC3)c2)c1=O [Example 114, 2-(3-(6-(1-cyclopropyl-1H-pyrazol-4-ylamino)-4-methyl-5-oxo-4,5-dihydropyrazin-2-yl)-2-(hydroxymethyl)phenyl)-3,4,6,7,8,9-hexahydropyrazino[1,2-a]indol-1(2H)-one] | 6.73
3 | Cn1cc(-c2cc(F)cc(N3CCc4c(sc5c4CCCC5)C3=O)c2CO)cc(Nc2ccncn2)c1=O [Example 115, 5-[5-Fluoro-2-(hydroxymethyl)-3-[1-methyl-6-oxo-5-(pyrimidin-4-ylamino)-1,6-dihydropyridin-3-yl]phenyl]-8-thia-5-azatricyclo[7.4.0.02,7]trideca-1(9),2(7)-dien-6-one] | 7.11
4 | Cn1cc(-c2cc(F)cc(N3CCn4c(cc5c4CCCC5)C3=O)c2CO)cc(Nc2ccc(N3CCN(C4COC4)CC3)cn2)c1=O [Example 210, 2-(5-fluoro-2-(hydroxymethyl)-3-(1-methyl-5-(5-(4-(oxetan-3-yl)piperazin-1-yl)pyridin-2-ylamino)-6-oxo-1,6-dihydropyridin-3-yl)phenyl)-3,4,6,7,8,9-hexahydropyrazino[1,2-a]indol-1(2H)-one] | 8.00
5 | Cn1cc(-c2cc(F)cc(N3CCc4c(sc5c4CCCC5)C3=O)c2CO)cc(Nc2ccc(N3CCN(C4COC4)CC3)cn2)c1=O [Example 211, 5-[5-Fluoro-2-(hydroxymethyl)-3-[1-methyl-5-({5-[4-(oxetan-3-yl)piperazin-1-yl]pyridin-2-yl}amino)-6-oxo-1,6-dihydropyridin-3-yl]phenyl]-8-thia-5-azatricyclo[7.4.0.0^2,7]trideca-1(9),2(7)-dien-6-one] | 8.05
6 | CN1CCN(c2ccc(Nc3cc(-c4cc(F)cc(N5CCc6c(sc7c6CCCC7)C5=O)c4CO)cn(C)c3=O)nc2)CC1 [Example 212, 5-[5-Fluoro-2-(hydroxymethyl)-3-(1-methyl-5-{[5-(4-methylpiperazin-1-yl)pyridine-2-yl]amino}-6-oxo-1,6-dihydropyridin-3-yl)phenyl]-8-thia-5-azatricyclo[7.4.0.0^2,7]trideca-1(9),2(7)-dien-6-one] | 8.05
7 | CC(C)N(C)Cc1ccc(Nc2cc(-c3cc(F)cc(N4CCc5c(sc6c5CCCC6)C4=O)c3CO)cn(C)c2=O)nc1 [Example 277, 5-[5-Fluoro-2-(hydroxymethyl)-3-{1-methyl-5-[(5-{[methyl(propan-2-yl)amino]methyl}pyridine-2-yl)amino]-6-oxo-1,6-dihydropyridin-3-yl}phenyl]-8-thia-5-azatricyclo[7.4.0.0^2,7]trideca-1(9),2(7)-dien-6-one] | 7.55
8 | Cn1cc(-c2cc(F)cc(N3CCc4c(sc5c4CCCC5)C3=O)c2CO)cc(Nc2ccc(N3CCOCC3)cn2)c1=O [Example 289, 2-(5-Fluoro-2-(hydroxymethyl)-3-(1-methyl-5-(5-morpholinopyridin-2-ylamino)-6-oxo-1,6-dihydropyridin-3-yl)phenyl)-3,4,5,6,7,8-hexahydrobenzothieno[2,3-c]pyridin-1(2H)-one] | 8.00
9 | CN1CCC[C@H]1c1ccc(Nc2cc(-c3cc(F)cc(N4CCn5c(cc6c5CC(C)(C)C6)C4=O)c3CO)cn(C)c2=O)nc1 [Example 290, 10-[5-Fluoro-2-(hydroxymethyl)-3-[1-methyl-5-({5-[(2S)-1-methylpyrrolidin-2-yl]pyridine-2-yl}amino)-6-oxo-1,6-dihydropyridin-3-yl]phenyl]-4,4-dimethyl-1,10-diazatricyclo[6.4.0.0^2,6]dodeca-2(6),7-dien-9-one] | 8.00
10 | CN(C)CCOc1ccc(Nc2cc(-c3cc(F)cc(N4CCc5c(sc6c5CC(C)(C)C6)C4=O)c3CO)cn(C)c2=O)nc1 [Example 296, 10-{3-[5-({5-[2-(Dimethylamino)ethoxy]pyridin-2-yl}amino)-1-methyl-6-oxo-1,6-dihydropyridin-3-yl]-5-fluoro-2-(hydroxymethyl)phenyl}-4,4-dimethyl-7-thia-10-azatricyclo[6.4.0.0^2,6]dodeca-1(8),2(6)-dien-9-one] | 9.00
11 | Cn1cc(-c2cc(F)cc(N3CCc4c(sc5c4CC(C)(C)C5)C3=O)c2CO)cc(Nc2ccc(C3CCN(C4COC4)CC3)cn2)c1=O [Example 299, 10-[5-Fluoro-2-(hydroxymethyl)-3-[1-methyl-5-({5-[1-(oxetan-3-yl)piperidin-4-yl]pyridine-2-yl}amino)-6-oxo-1,6-dihydropyridin-3-yl]phenyl]-4,4-dimethyl-7-thia-10-azatricyclo[6.4.0.0^2,6]dodeca-1(8),2(6)-dien-9-one] | 8.05
12 | COc1nccc(Nc2cc(-c3cc(F)cc(N4CCn5c(cc6c5CC(C)(C)C6)C4=O)c3CO)cn(C)c2=O)n1 [Example 300] | 8.05
13 | CN1CCC(c2ccc(Nc3cc(-c4cc(F)cc(N5CCc6c(sc7c6CCCC7)C5=O)c4CO)cn(C)c3=O)nc2)C1 (stereo not drawn) [Example 308, 5-[5-Fluoro-2-(Hydroxymethyl)-3-(1-methyl-5-{[5-(1-methylpyrrolidin-3-yl)pyridine-2-yl]amino}-6-oxo-1,6-dihydropyridin-3-yl)phenyl]-8-thia-5-azatricyclo-[7.4.0.0^2,7]trideca-1(9),2(7)-dien-6-one] | 7.20

Second part, the compound after the results:

Row | pEC50 | SMILES
14 | 7.52 | Cn1cc(-c2cccc(N3CCn4c(cc5c4CC(C)(C)C5)C3=O)c2CO)cc(Nc2ccc(N3CCN(C4COC4)CC3)cn2)c1=O [Example 311, 10-[2-(Hydroxymethyl)-3-[1-methyl-5-({5-[4-(oxetan-3-yl)piperazin-1-yl]pyridine-2-yl}amino)-6-oxo-1,6-dihydropyridin-3-yl]phenyl]-4,4-dimethyl-1,10-diazatricyclo[6.4.0.0^2,6]dodeca-2(6),7-dien-9-one]
15 | 7.74 | Cn1cc(-c2cc(F)cc(N3CCc4c(sc5c4CC(C)(C)C5)C3=O)c2CO)cc(Nc2cc3n(n2)CCN(C2COC2)C3)c1=O [Example 318, 10-[5-Fluoro-2-(hydroxymethyl)-3-(1-methyl-5-{[5-(oxetan-3-yl)-4H,5H,6H,7H-pyrazolo[1,5-a]pyrazin-2-yl]amino}-6-oxo-1,6-dihydropyridin-3-yl)phenyl]-4,4-dimethyl-7-thia-10-azatricyclo[6.4.0.0^2,6]dodeca-1(8),2(6)-dien-9-one]
16 | 7.80 | Cn1cc(-c2cccc(N3CCn4c(cc5c4CCCC5)C3=O)c2CO)cc(Nc2cc3n(n2)CCN(C2COC2)C3)c1=O [Example 319, 2-(2-(Hydroxymethyl)-3-(1-methyl-5-(5-(oxetan-3-yl)-4,5,6,7-tetrahydropyrazolo[1,5-a]pyrazin-2-ylamino)-6-oxo-1,6-dihydropyridin-3-yl)phenyl)-3,4,6,7,8,9-hexahydropyrazino[1,2-a]indol-1(2H)-one]
17 | 7.36 | CN(Cc1cc(Nc2cc(-c3cc(F)cc(N4CCn5c(cc6c5CC(C)(C)C6)C4=O)c3CO)cn(C)c2=O)nn1C)C1COC1 [Example 321, 10-[5-Fluoro-2-(Hydroxymethyl)-3-{1-methyl-5-[(1-methyl-5-{[methyl(oxetan-3-yl)amino]methyl}-1H-pyrazol-3-yl)amino]-6-oxo-1,6-dihydropyridin-3-yl}phenyl]-4,4-dimethyl-1,10-diazatricyclo[6.4.0.0^2,6]dodeca-2(6),7-dien-9-one]

Molecular target: Btk (Homo sapiens (Human), UniProt Q06187)
Sequence (Q06187 whole entry): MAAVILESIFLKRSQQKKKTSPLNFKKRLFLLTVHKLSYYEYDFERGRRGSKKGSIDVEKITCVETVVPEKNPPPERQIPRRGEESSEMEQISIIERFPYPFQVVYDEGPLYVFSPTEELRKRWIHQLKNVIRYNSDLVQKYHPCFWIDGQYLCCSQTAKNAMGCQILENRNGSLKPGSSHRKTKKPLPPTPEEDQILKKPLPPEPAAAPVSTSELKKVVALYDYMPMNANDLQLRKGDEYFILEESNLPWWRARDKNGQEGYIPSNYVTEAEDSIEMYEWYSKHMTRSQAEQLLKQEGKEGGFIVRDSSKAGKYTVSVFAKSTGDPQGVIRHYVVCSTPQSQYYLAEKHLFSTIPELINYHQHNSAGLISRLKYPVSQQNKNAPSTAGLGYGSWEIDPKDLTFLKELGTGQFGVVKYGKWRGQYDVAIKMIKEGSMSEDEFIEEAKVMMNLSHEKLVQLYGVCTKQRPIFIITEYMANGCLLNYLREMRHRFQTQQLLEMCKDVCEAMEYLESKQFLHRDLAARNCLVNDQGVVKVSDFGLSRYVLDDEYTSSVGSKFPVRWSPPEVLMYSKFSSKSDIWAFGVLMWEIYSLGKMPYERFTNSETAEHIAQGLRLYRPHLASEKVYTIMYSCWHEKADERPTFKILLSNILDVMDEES
Assay: standard biochemical Btk Kinase Assay (Example 901)
Settings: Table 1
Source text: Determination of IC50 values can be accomplished using conventional techniques known in the art. In general, an IC50 can be determined by measuring the activity of a given enzyme in the presence of a range of concentrations of the inhibitor under study. The experimentally obtained values of enzyme activity then are plotted against the inhibitor concentrations used. […] Analogously, other inhibitory concentrations can be defined through appropriate determinations of activity.

Row | pIC50 | SMILES
18 | 8.11 | Cn1cc(-c2cccc(N3CCn4c(cc5c4CCCC5)C3=O)c2CO)cc(Nc2cc3n(n2)CCOC3)c1=O [Example 110, 2-(3-(5-(6,7-dihydro-4H-pyrazolo[5,1-c][1,4]oxazin-2-ylamino)-1-methyl-6-oxo-1,6-dihydropyridin-3-yl)-2-(hydroxymethyl)phenyl)-3,4,6,7,8,9-hexahydropyrazino[1,2-a]indol-1(2H)-one]

Same assay, conditions: Table 2

Row | pIC50 | SMILES
19 | 8.00 | CCn1nc(Nc2cc(-c3cc(F)cc(N4CCn5c(cc6c5CC(C)(C)C6)C4=O)c3CO)cn(C)c2=O)cc1C [Example 302, 10-(3-{5-[(1-Ethyl-5-methyl-1H-pyrazol-3-yl)amino]-1-methyl-6-oxo-1,6-dihydropyridin-3-yl}-5-fluoro-2-(hydroxymethyl)phenyl)-4,4-dimethyl-1,10-diazatricyclo[6.4.0.0^2,6]dodeca-2(6),7-dien-9-one]
20 | 8.11 | Cn1cc(-c2cc(F)cc(N3CCn4c(cc5c4CC(C)(C)C5)C3=O)c2CO)cc(Nc2ccc(N3CCN(C4COC4)CC3)cn2)c1=O [Example 304, 10-[5-Fluoro-2-(hydroxymethyl)-3-[1-methyl-5-({5-[4-(oxetan-3-yl)piperazin-1-yl]pyridine-2-yl}amino)-6-oxo-1,6-dihydropyridin-3-yl]phenyl]-4,4-dimethyl-1,10-diazatricyclo[6.4.0.0^2,6]dodeca-2(6),7-dien-9-one]
21 | 7.77 | Cn1cc(-c2cccc(N3CCc4c(sc5c4CCCC5)C3=O)c2CO)nc(Nc2ccc(C3CCN(C4COC4)CC3)cc2)c1=O [Example 305, 5-[2-(Hydroxymethyl)-3-[4-methyl-6-({4-[1-(oxetan-3-yl)piperidin-4-yl]phenyl}amino)-5-oxo-4,5-dihydropyrazin-2-yl]phenyl]-8-thia-5-azatricyclo[7.4.0.0^2,7]trideca-1(9),2(7)-dien-6-one]
22 | 8.15 | CN1CCN(c2ccc(Nc3cc(-c4cccc(N5CCn6c(cc7c6CCCC7)C5=O)c4CO)nn(C)c3=O)nc2)CC1 [Example 307, 2-(2-(Hydroxymethyl)-3-(1-methyl-5-(5-(4-methylpiperazin-1-yl)pyridin-2-ylamino)-6-oxo-1,6-dihydropyridazin-3-yl)phenyl)-3,4,6,7,8,9-hexahydropyrazino[1,2-a]indol-1(2H)-one]
23 | 7.78 | Cn1cc(-c2cccc(N3CCc4c(cc5n4CCCC5)C3=O)c2CO)cc(Nc2cc3n(n2)CCOC3)c1=O [Example 309, 5-[2-(Hydroxymethyl)-3-{1-oxo-1H,2H,3H,4H,6H,7H,8H,9H-pyrido[3,4-b]indolizin-2-yl}phenyl]-1-methyl-3-{4H,6H,7H-pyrazolo[3,2-c][1,4]oxazin-2-ylamino}-1,2-dihydropyridin-2-one]
24 | 7.78 | CCN1CCN(c2ccc(Nc3cc(-c4cccc(N5CCc6c(cc7n6CCCC7)C5=O)c4CO)cn(C)c3=O)nc2)CC1 [Example 310, 3-{[5-(4-Ethylpiperazin-1-yl)pyridine-2-yl]amino}-5-[2-(hydroxymethyl)-3-{1-oxo-1H,2H,3H,4H,6H,7H,8H,9H-pyrido[3,4-b]indolizin-2-yl}phenyl]-1-methyl-1,2-dihydropyridin-2-one]
